Reference: publication PMC5218480 (PLoS ONE, 2017)

System: MV-4-11 cells
Experiment: Gene expression microarray analysis (Affymetrix PrimeView) and GSEA
Type: cell-based, human
Set-up: RFU PODN (11730768_x_at) / Fold change /veh PODN (11730768_x_at) / RFU LINC00158 (11744669_a_at) / Fold change /veh LINC00158 (11744669_a_at) / RFU DUSP10 (11751237_a_at) / Fold change /veh DUSP10 (11751237_a_at) / RFU ID3 (11757404_x_at) / Fold change /veh ID3 (11757404_x_at) / RFU PLEKHG5 (11737974_s_at) / Fold change /veh PLEKHG5 (11737974_s_at) / RFU LRRC4B (11730491_at) / Fold change /veh LRRC4B (11730491_at) / RFU GIMAP4 (11747438_a_at) / Fold change /veh GIMAP4 (11747438_a_at) / RFU KRT8 (11758183_x_at) / Fold change /veh KRT8 (11758183_x_at) / RFU CNN1 (11734310_a_at) / Fold change /veh CNN1 (11734310_a_at) / RFU VPS37D (11726825_at) / Fold change /veh VPS37D (11726825_at) / RFU C10orf10 (11716522_x_at) / Fold change /veh C10orf10 (11716522_x_at) / RFU KIR2DL2 /// KIR2DL4 /// KIR2DL5A /// KIR2DL5B /// KIR2DS1 /// KIR2DS2 /// KIR2DS3 /// KIR2DS4 /// KIR3DL3 /// KIR3DL3 /// KIR3DS1 (11738374_at) / Fold change /veh KIR2DL2 /// KIR2DL4 /// KIR2DL5A /// KIR2DL5B /// KIR2DS1 /// KIR2DS2 /// KIR2DS3 /// KIR2DS4 /// KIR3DL3 /// KIR3DL3 /// KIR3DS1 (11738374_at) / RFU C1QL1 (11718748_at) / Fold change /veh C1QL1 (11718748_at) / RFU TMPRSS4 (11747572_a_at) / Fold change /veh TMPRSS4 (11747572_a_at) / RFU HAMP (11756126_x_at) / Fold change /veh HAMP (11756126_x_at) / RFU RNFT2 (11725882_a_at) / Fold change /veh RNFT2 (11725882_a_at) / RFU NR4A2 (11747474_a_at) / Fold change /veh NR4A2 (11747474_a_at) / RFU ABCC12 (11746883_a_at) / Fold change /veh ABCC12 (11746883_a_at) / RFU TMEM136 (11760407_x_at) / Fold change /veh TMEM136 (11760407_x_at) / RFU CLDN22 /// WWC2 (11732394_at) / Fold change /veh CLDN22 /// WWC2 (11732394_at) / RFU HLA-DPB1 (11760878_x_at) / Fold change /veh HLA-DPB1 (11760878_x_at) / RFU SPINT1 (11716480_a_at) / Fold change /veh SPINT1 (11716480_a_at) / RFU GAP43 (11754022_s_at) / Fold change /veh GAP43 (11754022_s_at) / RFU A4GNT (11735810_at) / Fold change /veh A4GNT (11735810_at) / RFU PRB3 (11715151_x_at) / Fold change /veh PRB3 (11715151_x_at) / RFU TUBB4B (11761932_at) / Fold change /veh TUBB4B (11761932_at) / RFU CAPN14 (11732068_a_at) / Fold change /veh CAPN14 (11732068_a_at) / RFU TMCC2 (11721928_a_at) / Fold change /veh TMCC2 (11721928_a_at) / RFU IRGQ (11745062_a_at) / Fold change /veh IRGQ (11745062_a_at) / RFU FAM174B (11720279_a_at) / Fold change /veh FAM174B (11720279_a_at) / RFU TMPRSS4 (11748680_a_at) / Fold change /veh TMPRSS4 (11748680_a_at) / RFU FAM212B (11763350_a_at) / Fold change /veh FAM212B (11763350_a_at) / RFU PLEKHG5 (11743358_a_at) / Fold change /veh PLEKHG5 (11743358_a_at) / RFU ZSCAN30 (11745921_a_at) / Fold change /veh ZSCAN30 (11745921_a_at) / RFU CMKLR1 (11741424_a_at) / Fold change /veh CMKLR1 (11741424_a_at) / RFU LOC101060620 /// MAPK8IP1 (11723275_at) / Fold change /veh LOC101060620 /// MAPK8IP1 (11723275_at) / RFU SPTSSB (11747773_x_at) / Fold change /veh SPTSSB (11747773_x_at) / RFU PRSS12 (11739890_at) / Fold change /veh PRSS12 (11739890_at) / RFU BIN1 (11741810_x_at) / Fold change /veh BIN1 (11741810_x_at) / RFU WNT11 (11732464_a_at) / Fold change /veh WNT11 (11732464_a_at) / RFU C10orf10 (11716521_a_at) / Fold change /veh C10orf10 (11716521_a_at) / RFU C5orf56 (11738089_at) / Fold change /veh C5orf56 (11738089_at) / RFU CYB561 (11721691_x_at) / Fold change /veh CYB561 (11721691_x_at) / RFU ANKRD19P (11752326_a_at) / Fold change /veh ANKRD19P (11752326_a_at) / RFU OR2T12 /// OR2T33 /// OR2T8 (11738714_s_at) / Fold change /veh OR2T12 /// OR2T33 /// OR2T8 (11738714_s_at) / RFU VCAN (11748164_a_at) / Fold change /veh VCAN (11748164_a_at) / RFU JSRP1 (11732532_at) / Fold change /veh JSRP1 (11732532_at) / RFU KRTAP10-11 (11738290_x_at) / Fold change /veh KRTAP10-11 (11738290_x_at) / RFU MYO3A (11730013_a_at) / Fold change /veh MYO3A (11730013_a_at) / RFU EBF3 (11725865_a_at) / Fold change /veh EBF3 (11725865_a_at) / RFU CAMK2N1 (11719241_x_at) / Fold change /veh CAMK2N1 (11719241_x_at) / RFU C5orf56 (11738088_a_at) / Fold change /veh C5orf56 (11738088_a_at) / RFU OLFML3 (11715873_a_at) / Fold change /veh OLFML3 (11715873_a_at) / RFU LOC100653217 /// NTM (11731650_a_at) / Fold change /veh LOC100653217 /// NTM (11731650_a_at) / RFU MAPK11 (11762145_a_at) / Fold change /veh MAPK11 (11762145_a_at) / RFU FIZ1 (11724087_x_at) / Fold change /veh FIZ1 (11724087_x_at) / RFU OASL (11726364_x_at) / Fold change /veh OASL (11726364_x_at) / RFU SOX15 (11748057_x_at) / Fold change /veh SOX15 (11748057_x_at) / RFU CD79A (11719716_a_at) / Fold change /veh CD79A (11719716_a_at) / RFU HIST1H1D (11736915_at) / Fold change /veh HIST1H1D (11736915_at) / RFU CASKIN2 (11723855_a_at) / Fold change /veh CASKIN2 (11723855_a_at) / RFU LOC730098 (11760151_x_at) / Fold change /veh LOC730098 (11760151_x_at) / RFU OR4N2 (11742367_at) / Fold change /veh OR4N2 (11742367_at) / RFU PRRT2 (11749266_a_at) / Fold change /veh PRRT2 (11749266_a_at) / RFU SNX32 (11753110_a_at) / Fold change /veh SNX32 (11753110_a_at) / RFU CDHR5 (11726645_a_at) / Fold change /veh CDHR5 (11726645_a_at) / RFU RCAN1 (11760418_a_at) / Fold change /veh RCAN1 (11760418_a_at) / RFU FAM167A (11723789_a_at) / Fold change /veh FAM167A (11723789_a_at) / RFU FAM26E (11764081_at) / Fold change /veh FAM26E (11764081_at) / RFU ISYNA1 (11749810_s_at) / Fold change /veh ISYNA1 (11749810_s_at) / RFU ACY1 (11761880_at) / Fold change /veh ACY1 (11761880_at) / RFU 11764098_at / Fold change /veh 11764098_at / RFU SAMD14 (11745864_x_at) / Fold change /veh SAMD14 (11745864_x_at) / RFU NPB (11741838_a_at) / Fold change /veh NPB (11741838_a_at) / RFU TMPRSS6 (11731388_a_at) / Fold change /veh TMPRSS6 (11731388_a_at) / RFU KRTAP10-2 (11738614_at) / Fold change /veh KRTAP10-2 (11738614_at) / RFU ARHGAP8 /// PRR5-ARHGAP8 (11727945_x_at) / Fold change /veh ARHGAP8 /// PRR5-ARHGAP8 (11727945_x_at) / RFU KRTAP5-7 /// NADSYN1 (11734609_at) / Fold change /veh KRTAP5-7 /// NADSYN1 (11734609_at) / RFU RASL12 (11751679_a_at) / Fold change /veh RASL12 (11751679_a_at) / RFU CDKN2B (11736163_a_at) / Fold change /veh CDKN2B (11736163_a_at) / RFU PRF1 (11729649_at) / Fold change /veh PRF1 (11729649_at) / RFU, ZNF638 /// ZNF638-IT1 / Fold change vs veh, ZNF638 /// ZNF638-IT1 / RFU, PANK3 / Fold change vs veh, PANK3 / RFU, SH3YL1 / Fold change vs veh, SH3YL1 / RFU, ZEB2 / Fold change vs veh, ZEB2 / RFU, NRIP1 / Fold change vs veh, NRIP1 / RFU, PTTG1IP / Fold change vs veh, PTTG1IP / RFU, CAPN2 / Fold change vs veh, CAPN2 / RFU, MED14 / Fold change vs veh, MED14 / RFU, SNORA58 / Fold change vs veh, SNORA58 / RFU, C1orf63 / Fold change vs veh, C1orf63 / RFU, LRRFIP1 / Fold change vs veh, LRRFIP1 / RFU, NDUFAF7 / Fold change vs veh, NDUFAF7 / RFU, SLC12A2 / Fold change vs veh, SLC12A2 / RFU, IBTK / Fold change vs veh, IBTK / RFU, ESF1 / Fold change vs veh, ESF1 / Fold change vs veh, TMEM50B / RFU, TAOK1 / Fold change vs veh, TAOK1 / RFU, ACBD3 / Fold change vs veh, ACBD3 / RFU, TMA16 / Fold change vs veh, TMA16 / RFU, RWDD3 / Fold change vs veh, RWDD3 / RFU, BCAT1 / Fold change vs veh, BCAT1 / RFU, EDEM3 / Fold change vs veh, EDEM3 / RFU, TMEM33 / Fold change vs veh, TMEM33 / RFU, WDR75 / Fold change vs veh, WDR75 / RFU, AHCTF1 / Fold change vs veh, AHCTF1 / RFU, TFRC / Fold change vs veh, TFRC / RFU, ZDHHC17 / Fold change vs veh, ZDHHC17 / RFU, NOM1 / Fold change vs veh, NOM1 / RFU, ARL8B / Fold change vs veh, ARL8B / RFU, ZBTB11 / Fold change vs veh, ZBTB11 / RFU, TAMM41 / Fold change vs veh, TAMM41 / RFU, KIAA1704 /// LOC100996395 / Fold change vs veh, KIAA1704 /// LOC100996395 / RFU, ING1 / Fold change vs veh, ING1 / RFU, TRMT61B / Fold change vs veh, TRMT61B / RFU, FUBP3 / Fold change vs veh, FUBP3 / RFU, TP53 / Fold change vs veh, TP53 / RFU, TNKS2 / Fold change vs veh, TNKS2 / RFU, ZFP14 / Fold change vs veh, ZFP14 / RFU, ACTR2 / Fold change vs veh, ACTR2 / RFU, PPP3R1 / Fold change vs veh, PPP3R1 / RFU, PIK3R1 / Fold change vs veh, PIK3R1 / RFU, HNRNPA1 / Fold change vs veh, HNRNPA1 / RFU, RNF170 / Fold change vs veh, RNF170 / RFU, ZNF28 / Fold change vs veh, ZNF28 / RFU, RNGTT / Fold change vs veh, RNGTT / RFU, OGT / Fold change vs veh, OGT / RFU, BRD1 / Fold change vs veh, BRD1 / RFU, MARS / Fold change vs veh, MARS / RFU, ZNF655 / Fold change vs veh, ZNF655 / RFU, FAHD1 / Fold change vs veh, FAHD1 / RFU, BDP1 / Fold change vs veh, BDP1 / RFU, LRRCC1 / Fold change vs veh, LRRCC1 / RFU, ARID1A / Fold change vs veh, ARID1A / RFU, ZNF146 / Fold change vs veh, ZNF146 / RFU, ZNF330 / Fold change vs veh, ZNF330 / RFU, GPN3 / Fold change vs veh, GPN3 / RFU, C9orf123 / Fold change vs veh, C9orf123 / RFU, N4BP2L2 / Fold change vs veh, N4BP2L2 / RFU, ARFIP1 / Fold change vs veh, ARFIP1 / RFU, FAM179B / Fold change vs veh, FAM179B / RFU, BCL10 / Fold change vs veh, BCL10 / RFU, UHRF1BP1L / Fold change vs veh, UHRF1BP1L / RFU, BET1 / Fold change vs veh, BET1 / RFU, CNOT2 / Fold change vs veh, CNOT2 / RFU, ZNF268 / Fold change vs veh, ZNF268 / Fold change vs veh, ZNF507 / RFU, DGCR2 / Fold change vs veh, DGCR2 / RFU, WDSUB1 / Fold change vs veh, WDSUB1 / Fold change vs veh, HSP90B1 /// MIR3652 / RFU, ADSS / Fold change vs veh, ADSS / RFU, GK / Fold change vs veh, GK / RFU, ZNF148 / Fold change vs veh, ZNF148 / RFU, TAF9 / Fold change vs veh, TAF9 / RFU, SLC1A5 / Fold change vs veh, SLC1A5 / RFU, SLMO2 / Fold change vs veh, SLMO2 / RFU, ABCC4 / Fold change vs veh, ABCC4 / RFU, LOC101060439 /// RAP1B / Fold change vs veh, LOC101060439 /// RAP1B / RFU, RFX7 / Fold change vs veh, RFX7 / RFU, GTPBP10 / Fold change vs veh, GTPBP10 / RFU, CNEP1R1 / Fold change vs veh, CNEP1R1 / RFU, BIVM-ERCC5 /// ERCC5 / Fold change vs veh, BIVM-ERCC5 /// ERCC5 / RFU, ILF3 / Fold change vs veh, ILF3 / RFU 11762660_at / Fold change /veh 11762660_at / RFU VCAN (11757783_s_at) / Fold change /veh VCAN (11757783_s_at) / RFU DDX43 (11728927_at) / Fold change /veh DDX43 (11728927_at) / RFU KRT8 (11758188_x_at) / Fold change /veh KRT8 (11758188_x_at) / RFU NKD1 (11759106_at) / Fold change /veh NKD1 (11759106_at) / RFU SRD5A1 (11742802_a_at) / Fold change /veh SRD5A1 (11742802_a_at) / RFU TPSAB1 /// TPSB2 (11721975_s_at) / Fold change /veh TPSAB1 /// TPSB2 (11721975_s_at) / RFU GSTM3 (11746129_a_at) / Fold change /veh GSTM3 (11746129_a_at) / RFU IL23R (11737362_x_at) / Fold change /veh IL23R (11737362_x_at) / RFU TMEM51 (11727254_a_at) / Fold change /veh TMEM51 (11727254_a_at) / RFU PIWIL2 (11732686_x_at) / Fold change /veh PIWIL2 (11732686_x_at) / RFU ORM1 (11744905_x_at) / Fold change /veh ORM1 (11744905_x_at) / RFU CCDC152 (11743942_at) / Fold change /veh CCDC152 (11743942_at) / RFU ECM1 (11717891_a_at) / Fold change /veh ECM1 (11717891_a_at) / RFU IL23R (11748794_a_at) / Fold change /veh IL23R (11748794_a_at) / RFU TNFAIP8L3 (11732012_x_at) / Fold change /veh TNFAIP8L3 (11732012_x_at) / RFU MBOAT4 (11741988_at) / Fold change /veh MBOAT4 (11741988_at) / RFU 11764193_at / Fold change /veh 11764193_at / RFU TMEM53 (11763286_at) / Fold change /veh TMEM53 (11763286_at) / RFU MAGEB2 (11727129_at) / Fold change /veh MAGEB2 (11727129_at) / RFU TMEM200A (11744735_a_at) / Fold change /veh TMEM200A (11744735_a_at) / RFU CCDC152 (11751479_a_at) / Fold change /veh CCDC152 (11751479_a_at) / RFU FAM211A (11726209_a_at) / Fold change /veh FAM211A (11726209_a_at) / RFU RGS16 (11746705_a_at) / Fold change /veh RGS16 (11746705_a_at) / RFU VCAN (11755009_s_at) / Fold change /veh VCAN (11755009_s_at) / RFU RHOB (11743442_s_at) / Fold change /veh RHOB (11743442_s_at) / RFU RGS16 (11720943_a_at) / Fold change /veh RGS16 (11720943_a_at) / RFU RGS16 (11720944_at) / Fold change /veh RGS16 (11720944_at) / RFU, VPS4B / Fold change vs veh, VPS4B / RFU, CREB1 / Fold change vs veh, CREB1 / RFU, DNAJC13 / Fold change vs veh, DNAJC13 / RFU, GNAQ / Fold change vs veh, GNAQ / RFU, CDK5R1 / Fold change vs veh, CDK5R1 / RFU, ZRANB3 / Fold change vs veh, ZRANB3 / RFU, CUL4A / Fold change vs veh, CUL4A / RFU, CCNY / Fold change vs veh, CCNY / RFU, UFL1 / Fold change vs veh, UFL1 / RFU, COG3 / Fold change vs veh, COG3 / RFU, DIAPH2 / Fold change vs veh, DIAPH2 / RFU, SKA2 / Fold change vs veh, SKA2 / RFU, AFF3 / Fold change vs veh, AFF3 / RFU, LMF1 / Fold change vs veh, LMF1 / RFU, IPO11 / Fold change vs veh, IPO11 / RFU, DFFB / Fold change vs veh, DFFB / RFU, FOXP1 / Fold change vs veh, FOXP1 / RFU, CARD8 / Fold change vs veh, CARD8 / RFU, STRN3 / Fold change vs veh, STRN3 / RFU, ADK / Fold change vs veh, ADK / RFU, RASSF2 / Fold change vs veh, RASSF2 / RFU, WIPF1 / Fold change vs veh, WIPF1 / RFU, LARP1B / Fold change vs veh, LARP1B / RFU, RASA1 / Fold change vs veh, RASA1 / RFU, RB1 / Fold change vs veh, RB1 / RFU, PPFIA1 / Fold change vs veh, PPFIA1 / RFU, MAT2A / Fold change vs veh, MAT2A / RFU, CCT5 / Fold change vs veh, CCT5 / RFU, WDR92 / Fold change vs veh, WDR92 / RFU, CUX1 / Fold change vs veh, CUX1 / RFU, TTC7A / Fold change vs veh, TTC7A / RFU, TMEM135 / Fold change vs veh, TMEM135 / RFU, DEPTOR / Fold change vs veh, DEPTOR / RFU, CPM / Fold change vs veh, CPM / RFU, DNAJB6 / Fold change vs veh, DNAJB6 / RFU, CACNA2D3 / Fold change vs veh, CACNA2D3 / RFU, DTX4 / Fold change vs veh, DTX4 / RFU, TFCP2 / Fold change vs veh, TFCP2 / RFU, GMCL1 /// GMCL1P1 / Fold change vs veh, GMCL1 /// GMCL1P1 / RFU, AEBP2 / Fold change vs veh, AEBP2 / RFU, SNHG1 /// SNORD22 /// SNORD25 /// SNORD26 /// SNORD27 /// SNORD28 /// SNORD29 /// SNORD31 / Fold change vs veh, SNHG1 /// SNORD22 /// SNORD25 /// SNORD26 /// SNORD27 /// SNORD28 /// SNORD29 /// SNORD31 / Fold change (Aza/veh), C12orf56 (ProbeSet 11735607_a_at) / Fold change (ACY-1035/veh), C12orf56 (ProbeSet 11735607_a_at) / Fold change (Aza/veh), FGFR1OP (ProbeSet 11751329_s_at) / Fold change (ACY-1035/veh), FGFR1OP (ProbeSet 11751329_s_at) / Fold change (Aza/veh), VPS36 (ProbeSet 11739960_a_at) / Fold change (ACY-1035/veh), VPS36 (ProbeSet 11739960_a_at) / RFU SYPL1 (11715823_x_at) / Fold change /veh SYPL1 (11715823_x_at) / RFU IGFBP7 (11715501_s_at) / Fold change /veh IGFBP7 (11715501_s_at) / RFU REEP3 (11722064_at) / Fold change /veh REEP3 (11722064_at) / RFU IGLL1 (11728026_x_at) / Fold change /veh IGLL1 (11728026_x_at): dose or concentration left out as unconfirmed
Conditions: MV-4-11 cells, 48 hours

Nc1ccc(-c2cccs2)cc1NC(=O)c1ccc2c(c1)cc(C1CC1)n2CCN1CCOCC1 [ACY-1035] was tested. Which “Fold change /veh DDX43 (11728927_at)” value did it give?
The value was 1.03.
